Where a name gives a salt, the structure may show the parent alone.
Experiments:
[1] = test system: Human ARPE-19 cells; assay: Light microscopy of cell morphology after TBHP challenge; format: cell-based
Protocol: FIG. 1B depicts cells alone (control). FIG. 1C depicts cells treated with 300 μM TBHP. FIG. 1D depicts cells treated with 0.9 μM of ciclopirox olamine.
FIG. 8B depicts cells alone (control). FIG. 8C depicts cells treated with 300 μM TBHP. FIG. 8D depicts cells treated with 0.6 μM compound 414.
Human ARPE-19 cells morphology was examined using phase contrast on a Zeiss 510 NLO confocal laser scanning microscope with a Plan-Apochromatic 20×0.8 DIC objective.

[2] = test system: Human iPSC-derived RPE cells; assay: Mitochondrial respiration (Seahorse XF) after TBHP in iPSC-derived RPE; format: cell-based
[3] = test system: Human lens epithelial cells; assay: TBHP-induced cell death in lens epithelial cells; format: cell-based; conditions: lens epithelial cells (FIG. 19); 0.9 μM 24 h, then 300 μM TBHP 24 h
Protocol: Immortalized human lens epithelial cells (CRL-11421) obtained from the American Type Culture Collection (ATCC, Manassas, VA, USA) were cultured in Eagle's minimum essential media (EMEM, ATCC) containing 10% fetal bovine serum (FBS), 100 IU/mL penicillin, 100 μg/mL streptomycin, 100 μg/mL gentamicin, and 2.5 μg/mL amphotericin B (Thermo Fisher Scientific). Human ARPE-19 cells were plated in 96-well plates for 24 hours in DMEM supplemented with FBS and antibiotics. ARPE-19 cells were preincubated with either ciclopirox olamine (Sigma), compound 414 (Chemical Diversity, San Diego, CA), compound 434 (Chemical Diversity) or no compound for 24 hours and then exposed to varying concentrations of tert-butyl hydroperoxide (TBHP; Sigma-Aldrich, St. Louis, MO) the next day for 24 hours. Cell viability was measured the following day by […] cell viability assay (Promega, Madison, WI) using a BioTek FLX800TM fluorescence reader (BioTek Winooski, VT). […] Protective effect of 0.9 μMciclopirox olamine on lens epithelial cells exposed to 300 μMTBHP.

[4] = test system: HUVEC; assay: TBHP-induced cell death in HUVEC; format: cell-based, human; conditions: 0.9 μM 24 h preincubation, 400 μM TBHP 24 h
Protocol: (§1) FIG. 17 is a graph illustrating that Compound 414 and 434 protect various cell types from oxidative stress-induced cell death. Human ARPE-19, HUVEC, and C6 cells were preincubated with compound 414 and 434 for 24 hours, and then exposed to 400 μM tert-butyl hydroperoxide (TBHP) to induce cell death for 24 hours.
(§2) Human ARPE-19, HUVEC, and C6 cells were preincubated with compound 414 and 434 for 24 hours, and then exposed to 400 μM tert-butyl hydroperoxide (TBHP) to induce cell death for 24 hours.

[5] = test system: C6 cells; assay: TBHP-induced cell death in C6 cells; format: cell-based; conditions: 0.9 μM 24 h preincubation, 400 μM TBHP 24 h
Protocol: as §1, §2

[6] = test system: Human ARPE-19 cells; assay: CellTox Green cytotoxicity assay; format: cell-based; conditions: 0.9 μM 24 h
Protocol: FIG. 14 is a graph illustrating cytotoxicity level of the compounds in human retinal pigment epithelial (RPE) cells. Human ARPE-19 cells were preincubated with 0.9 μM of compound 414 or 434 for 24 hours and then exposed to 300 μM tert-butyl hydroperoxide (TBHP) for 24 hours. Cell toxicity was measured in human ARPE-19 cells after treatment with TBHP and compounds 414 and 434.
Human ARPE-19 or primary RPE were plated in 96-well plates for 24 hours in DMEM supplemented with FBS and antibiotics. ARPE-19 cells were incubated with compound (Chemical Diversity) or exposed to tert-butyl hydroperoxide (Sigma-Aldrich, St. Louis, MO) for 24 hours. Cell cytotoxicity was measured the following day by CellTox™ Green cytotoxicity assay (Promega, Madison, WI) using a BioTek FLx800™ fluorescence reader (BioTek, Winooski, VT).
After exposure to TBHP for 24 hours and treatment with compound 414 or 434 cytotoxicity levels were measured in human ARPE-19 cells (FIG. 14).

[7] = test system: Human ARPE-19 cells; assay: Cell viability on nitrite-modified extracellular matrix; format: cell-based; conditions: 0.9 μM, 24 h
Protocol: To prepare the RPE ECM nitrite-treated plates, ARPE-19 cells were grown on 24-well Transwell permeable supports (Corning, Tewksbury, MA, USA) in 12-well plates for 6 to 8 weeks to allow for ECM formation. ARPE-19 cells were removed by the addition of 20 mM ammonium hydroxide buffer for 20 minutes, and the ECM was washed three times with phosphate-buffered saline (PBS). Phosphate-buffered saline was removed from the RPE-derived ECM (RPE-ECM), which was then allowed to dry. The RPE-derived ECM plates were either used immediately after drying, or stored at −20° C. for future use. RPE-derived ECM was processed further to create four experimental plating surfaces (untreated, nitrite modified, nitrite modified followed by washing, or nitrite modified followed by washing and coating with a mixture of ECM ligands).
Nitrite-modified ECM was prepared by adding 100 mM sodium nitrite to the ECM and incubating at 37° C. for 7 days. Plates were then washed at least four times with PBS and further incubated with PBS for 4 hours. Following this, the plates were washed at least two additional times to completely remove the nitrite.
Reactive nitrogen species (RNS) act together with reactive oxygen species (ROS) to damage cells, causing nitrosative stress. […]

[8] = test system: 661 W photoreceptor-derived cells; assay: TBHP-induced oxidative stress in 661 W photoreceptor-derived cells; format: cell-based, Murine; conditions: 24 h preincubation, then 300 μM TBHP 24 h, n=4
Protocol: As shown in FIGS. 20A-20B, compounds 414 and 434 protect 661 W photoreceptor-derived cells from tert-butyl […] oxidative stress. Retinal photoreceptor-derived cell line (661 W) were cultured until confluent in Dulbecco's modified eagle medium (DMEM) with 10% fetal bovine serum (FBS). Murine photoreceptor-derived cells were preincubated with 3 μMciclopirox olamine for 24 hours and then exposed to 300 μM tert-butyl hydroperoxide (TBHP) to induce cell death for 24 hours. […] Bar: standard error, n=4. student t-test was performed for statistical analysis.

## Cc1cc(C2CCCCC2)n(O)c(=O)c1 [ciclopirox olamine, 6-cyclohexyl-1-hydroxy-4-methyl-2(1H)-pyridone, ethanolamine salt, reference compound]
[1]; 0.9 μM ciclopirox olamine and 300 μM TBHP
  cell morphology after challenge with TBHP: helps to preserve a normal morphology
[2]; iPSC-derived RPE treated with ciclopirox olamine alone
  mitochondrial function, treatment alone: improved
[2]; iPSC-derived RPE, TBHP 24 h
  protection from oxidative stress-induced cell death: protects
[3]
  cell viability after exposure to TBHP: significantly increases cell viability

## CCc1cccc(C)c1Nc1c(-c2cc(Br)ccc2O)nc2ncccn12 [compound 414]
[1]; 0.6 μM compound and 300 μM TBHP
  cell morphology after challenge with TBHP: helps to preserve a normal morphology
[4]
  protection from oxidative stress-induced cell death: Protective effects
[5]
  protection from oxidative stress-induced cell death: Protective effects
[6]
  cytotoxicity, treatment with compound alone: reduce cytotoxicity
[7]
  cell viability on nitrite-modified ECM: enhances cell viability
[8]
  cell viability after exposure to TBHP: significantly increased cell viability

## CCc1cccc(C)c1Nc1c(-c2cc(Br)ccc2O)nc2nc(C)cc(C)n12 [compound 434]
[4]
  protection from oxidative stress-induced cell death: Protective effects
[5]
  protection from oxidative stress-induced cell death: Protective effects
[6]
  cytotoxicity, treatment with compound alone: reduce cytotoxicity
[7]
  cell viability on nitrite-modified ECM: enhances cell viability
[8]
  cell viability after exposure to TBHP: significantly increased cell viability
